Compound	melting point [°C]
Cc1cc(CN(C)c2cc(-c3ccc(Cl)cc3)nn2C)cc(C)c1OC(C)(C)C(=O)O [Example 6, 2-[4-({[5-(4-Chloro-phenyl)-2-methyl-2H-pyrazol-3-yl]-methyl-amino}-methyl)-2,6-dimethyl-phenoxy]-2-methyl-propionic acid]	158
Cc1cc(CN(Cc2cccs2)c2sc(-c3ccc(C(F)(F)F)cc3)nc2C)ccc1OC(C)(C)C(=O)O [Example 91, 2-Methyl-2-(2-methyl-4-{([4-methyl-2-(4-trifluoromethylphenyl)thiazol-5-yl-]thiophen-2-ylmethylamino)methyl}phenoxy)propionic acid]	100
Cc1cc(CN(Cc2ccco2)c2sc(-c3ccc(C(F)(F)F)cc3)nc2C)ccc1OC(C)(C)C(=O)O [Example 93, 2-Methyl-2-(2-methyl-4-{([4-methyl-2-(4-trifluoromethylphenyl)thiazol-5-yl]furan-2-ylmethylamino)methyl}phenoxy)propionic acid]	80

More lines, now with the values ahead:

melting point [°C]	Compound
90 to 100	Cc1cc(CN(Cc2ccsc2)c2sc(-c3ccc(C(F)(F)F)cc3)nc2C)cc(C)c1OC(C)(C)C(=O)O [Example 2, 2-[2,6-Dimethyl-4-({[4-methyl-2-(4-trifluoromethyl-phenyl)-thiazol-5-yl]-thiophen-3-ylmethyl-amino}-methyl)-phenoxy]-2-methyl-propionic acid]
> 90	Cc1cc(CN(Cc2ccc(F)cc2)c2cc(-c3ccc(C(F)(F)F)cc3)nn2C)cc(C)c1OC(C)(C)C(=O)O [Example 14, 2-[4-({(4-Fluoro-benzyl)-[2-methyl-5-(4-trifluoromethyl-phenyl)-2H-pyrazol-3-yl]-amino}-methyl)-2,6-dimethyl-phenoxy]-2-methyl-propionic acid]
